Source: ChEMBL document CHEMBL5678810

Tests used:
[1] = tested on: Tyrosine-protein kinase ABL1 (Homo sapiens), P00519 [T315I]; assay: Inhibition of T7 bacteriophage fused human nonphosphorylated ABL1 T315I mutant at 10 uM by KINOMEscan analysis relative to control
[2] = molecular target: Aurora kinase B (Homo sapiens) (UniProt Q96GD4); assay: Inhibition of T7 bacteriophage fused human AURKB at 10 uM by KINOMEscan analysis relative to control
[3] = molecular target: Calcium/calmodulin-dependent protein kinase type II subunit gamma (Homo sapiens) (UniProt Q13555); assay: Inhibition of T7 bacteriophage fused human CAMK2G at 10 uM by KINOMEscan analysis relative to control
[4] = molecular target: Dual specificity protein kinase CLK4 (Homo sapiens) (UniProt Q9HAZ1); assay: Inhibition of T7 bacteriophage fused human CLK4 at 10 uM by KINOMEscan analysis relative to control
[5] = molecular target: Serine/threonine-protein kinase DCLK2 (Homo sapiens) (UniProt Q8N568); assay: Inhibition of T7 bacteriophage fused human DCAMKL2 at 10 uM by KINOMEscan analysis relative to control
[6] = tested on: Epidermal growth factor receptor (Homo sapiens), P00533 [L858R,T790M]; assay: Inhibition of T7 bacteriophage fused human EGFR L858R/T790M mutant at 10 uM by KINOMEscan analysis relative to control
[7] = molecular target: Mitogen-activated protein kinase 6 (Homo sapiens) (UniProt Q16659); assay: Inhibition of T7 bacteriophage fused human ERK3 at 10 uM by KINOMEscan analysis relative to control
[8] = tested on: Receptor-type tyrosine-protein kinase FLT3 (Homo sapiens), P36888 [K663Q]; assay: Inhibition of T7 bacteriophage fused human FLT3 K663Q mutant at 10 uM by KINOMEscan analysis relative to control
[9] = molecular target: Tyrosine-protein kinase JAK3 (Homo sapiens) (UniProt P52333); assay: Inhibition of T7 bacteriophage fused human JAK3 JH1catalytic domain at 10 uM by KINOMEscan analysis relative to control
[10] = molecular target: LIM domain kinase 2 (Homo sapiens) (UniProt P53671); assay: Inhibition of T7 bacteriophage fused human LIMK2 at 10 uM by KINOMEscan analysis relative to control
[11] = molecular target: Mitogen-activated protein kinase kinase kinase kinase 2 (Homo sapiens) (UniProt Q12851); assay: Inhibition of T7 bacteriophage fused human MAP4K2 at 10 uM by KINOMEscan analysis relative to control
[12] = molecular target: Serine/threonine-protein kinase PAK 6 (Homo sapiens) (UniProt Q9NQU5); assay: Inhibition of T7 bacteriophage fused human PAK6 at 10 uM by KINOMEscan analysis relative to control
[13] = tested on: Phosphatidylinositol 4,5-bisphosphate 3-kinase catalytic subunit alpha isoform (Homo sapiens), P42336 [H1047L]; assay: Inhibition of T7 bacteriophage fused human PIK3CA H1047L mutant at 10 uM by KINOMEscan analysis relative to control
[14] = molecular target: Phosphatidylinositol 4,5-bisphosphate 3-kinase catalytic subunit beta isoform (Homo sapiens) (UniProt P42338); assay: Inhibition of T7 bacteriophage fused human PIK3CB at 10 uM by KINOMEscan analysis relative to control
[15] = molecular target: Phosphatidylinositol 4,5-bisphosphate 3-kinase catalytic subunit gamma isoform (Homo sapiens) (UniProt P48736); assay: Inhibition of T7 bacteriophage fused human PIK3CG at 10 uM by KINOMEscan analysis relative to control
[16] = molecular target: Phosphatidylinositol 5-phosphate 4-kinase type-2 beta (Homo sapiens) (UniProt P78356); assay: Inhibition of T7 bacteriophage fused human PIP5K2B at 10 uM by KINOMEscan analysis relative to control
[17] = molecular target: Serine/threonine-protein kinase RIO3 (Homo sapiens) (UniProt O14730); assay: Inhibition of T7 bacteriophage fused human RIOK3 at 10 uM by KINOMEscan analysis relative to control
[18] = molecular target: Rho-associated protein kinase 1 (Homo sapiens) (UniProt Q13464); assay: Inhibition of T7 bacteriophage fused human ROCK1 at 10 uM by KINOMEscan analysis relative to control
[19] = molecular target: Uncharacterized serine/threonine-protein kinase SBK3 (Homo sapiens) (UniProt P0C264); assay: Inhibition of T7 bacteriophage fused human SgK110 at 10 uM by KINOMEscan analysis relative to control
[20] = molecular target: Cyclin-G-associated kinase (Homo sapiens) (UniProt O14976); assay: Inhibition of T7 bacteriophage fused human GAK at 10 uM by KINOMEscan analysis relative to control; values are per cent of control
[21] = molecular target: Serine/threonine-protein kinase ICK (Homo sapiens) (UniProt Q9UPZ9); assay: Inhibition of T7 bacteriophage fused human ICK at 10 uM by KINOMEscan analysis relative to control; values are per cent of control
[22] = molecular target: Dual specificity protein kinase CLK2 (Homo sapiens) (UniProt P49760); assay: Inhibition of T7 bacteriophage fused human CLK2 at 10 uM by KINOMEscan analysis relative to control; values are per cent of control
[23] = molecular target: Mitogen-activated protein kinase 7 (Homo sapiens, UniProt Q13164); assay: Inhibition of T7 bacteriophage fused human ERK5 at 10 uM by KINOMEscan analysis relative to control; values are per cent of control
[24] = molecular target: Dual specificity mitogen-activated protein kinase kinase 2 (Homo sapiens) (UniProt P36507); assay: Inhibition of T7 bacteriophage fused human MEK2 at 10 uM by KINOMEscan analysis relative to control; values are per cent of control
[25] = molecular target: Ephrin type-A receptor 2 (Homo sapiens) (UniProt P29317); assay: Inhibition of T7 bacteriophage fused human EPHA2 at 10 uM by KINOMEscan analysis relative to control; values are per cent of control
[26] = molecular target: Insulin-like growth factor 1 receptor (Homo sapiens) (UniProt P08069); assay: Inhibition of T7 bacteriophage fused human IGF1R at 10 uM by KINOMEscan analysis relative to control; values are per cent of control
[27] = molecular target: Mitogen-activated protein kinase kinase kinase 2 (Homo sapiens) (UniProt Q9Y2U5); assay: Inhibition of T7 bacteriophage fused human MAP3K2 at 10 uM by KINOMEscan analysis relative to control; values are per cent of control
[28] = molecular target: Mitogen-activated protein kinase kinase kinase kinase 4 (Homo sapiens) (UniProt O95819); assay: Inhibition of T7 bacteriophage fused human MAP4K4 at 10 uM by KINOMEscan analysis relative to control; values are per cent of control
[29] = molecular target: Phosphatidylinositol 5-phosphate 4-kinase type-2 gamma (Homo sapiens) (UniProt Q8TBX8); assay: Inhibition of PIP4K2C ATP labeling site harboring TLVIkEVSSEDIADMHSNLSNYHQYIVK in human PC-3 cell lysate at 10 uM by KiNativ profiling analysis relative to control; assay type: subcellular
Sequence of Phosphatidylinositol 5-phosphate 4-kinase type-2 gamma (Homo sapiens) (Q8TBX8 whole entry): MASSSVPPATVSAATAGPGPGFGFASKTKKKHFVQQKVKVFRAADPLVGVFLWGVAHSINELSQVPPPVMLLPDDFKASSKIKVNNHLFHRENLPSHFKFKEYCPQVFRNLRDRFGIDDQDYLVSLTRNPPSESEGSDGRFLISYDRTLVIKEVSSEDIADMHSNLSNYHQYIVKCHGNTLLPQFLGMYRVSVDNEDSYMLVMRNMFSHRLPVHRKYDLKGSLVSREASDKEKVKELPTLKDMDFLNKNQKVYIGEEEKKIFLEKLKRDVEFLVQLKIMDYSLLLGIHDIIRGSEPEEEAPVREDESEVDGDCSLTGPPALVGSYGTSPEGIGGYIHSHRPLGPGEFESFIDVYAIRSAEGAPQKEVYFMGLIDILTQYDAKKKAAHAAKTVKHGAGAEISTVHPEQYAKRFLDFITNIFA

Sequence of Phosphatidylinositol 5-phosphate 4-kinase type-2 beta (Homo sapiens) (P78356 whole entry, the tested form may be a part): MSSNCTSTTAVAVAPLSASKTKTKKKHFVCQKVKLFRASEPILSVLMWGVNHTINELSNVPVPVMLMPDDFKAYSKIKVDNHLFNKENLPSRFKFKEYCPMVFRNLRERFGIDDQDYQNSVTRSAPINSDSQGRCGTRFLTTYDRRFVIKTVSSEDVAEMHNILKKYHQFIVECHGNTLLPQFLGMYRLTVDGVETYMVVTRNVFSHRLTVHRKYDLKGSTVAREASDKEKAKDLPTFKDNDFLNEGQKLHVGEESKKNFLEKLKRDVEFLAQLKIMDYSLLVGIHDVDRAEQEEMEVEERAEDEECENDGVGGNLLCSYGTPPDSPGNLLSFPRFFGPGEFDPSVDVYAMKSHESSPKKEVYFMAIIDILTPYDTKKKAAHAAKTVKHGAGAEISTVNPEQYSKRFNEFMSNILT
Sequence of Tyrosine-protein kinase JAK3 (Homo sapiens) (P52333 whole entry, the tested form may be a part): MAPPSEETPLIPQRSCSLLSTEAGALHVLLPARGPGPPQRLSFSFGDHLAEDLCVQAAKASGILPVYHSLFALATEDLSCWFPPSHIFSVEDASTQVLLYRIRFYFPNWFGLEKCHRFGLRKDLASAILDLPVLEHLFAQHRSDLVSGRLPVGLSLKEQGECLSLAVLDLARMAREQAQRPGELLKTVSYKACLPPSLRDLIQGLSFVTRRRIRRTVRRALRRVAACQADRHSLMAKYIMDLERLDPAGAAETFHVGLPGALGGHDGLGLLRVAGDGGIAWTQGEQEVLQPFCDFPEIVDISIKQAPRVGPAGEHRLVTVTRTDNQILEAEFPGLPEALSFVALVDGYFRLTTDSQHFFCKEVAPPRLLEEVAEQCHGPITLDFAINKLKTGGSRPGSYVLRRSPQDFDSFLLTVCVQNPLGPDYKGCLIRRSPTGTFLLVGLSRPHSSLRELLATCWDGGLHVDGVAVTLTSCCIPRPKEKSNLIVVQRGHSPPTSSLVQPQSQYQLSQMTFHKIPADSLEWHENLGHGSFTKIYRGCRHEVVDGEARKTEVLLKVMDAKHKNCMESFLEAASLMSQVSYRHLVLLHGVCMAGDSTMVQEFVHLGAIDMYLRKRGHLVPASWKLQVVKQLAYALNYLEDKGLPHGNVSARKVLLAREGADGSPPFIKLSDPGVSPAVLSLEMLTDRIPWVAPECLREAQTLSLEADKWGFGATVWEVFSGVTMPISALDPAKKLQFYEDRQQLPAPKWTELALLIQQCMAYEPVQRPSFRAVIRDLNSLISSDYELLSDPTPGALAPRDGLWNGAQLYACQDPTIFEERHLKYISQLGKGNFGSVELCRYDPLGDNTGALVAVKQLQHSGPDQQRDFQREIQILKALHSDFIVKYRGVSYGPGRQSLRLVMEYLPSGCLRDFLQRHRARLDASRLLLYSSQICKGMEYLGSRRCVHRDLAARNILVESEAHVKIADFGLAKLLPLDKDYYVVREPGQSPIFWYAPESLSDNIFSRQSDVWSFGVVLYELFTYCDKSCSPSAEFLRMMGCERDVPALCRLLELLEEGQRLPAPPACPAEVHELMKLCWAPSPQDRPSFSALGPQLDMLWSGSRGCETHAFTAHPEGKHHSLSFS
Sequence of Dual specificity protein kinase CLK4 (Homo sapiens) (Q9HAZ1 whole entry, looked up, the tested form may be a part): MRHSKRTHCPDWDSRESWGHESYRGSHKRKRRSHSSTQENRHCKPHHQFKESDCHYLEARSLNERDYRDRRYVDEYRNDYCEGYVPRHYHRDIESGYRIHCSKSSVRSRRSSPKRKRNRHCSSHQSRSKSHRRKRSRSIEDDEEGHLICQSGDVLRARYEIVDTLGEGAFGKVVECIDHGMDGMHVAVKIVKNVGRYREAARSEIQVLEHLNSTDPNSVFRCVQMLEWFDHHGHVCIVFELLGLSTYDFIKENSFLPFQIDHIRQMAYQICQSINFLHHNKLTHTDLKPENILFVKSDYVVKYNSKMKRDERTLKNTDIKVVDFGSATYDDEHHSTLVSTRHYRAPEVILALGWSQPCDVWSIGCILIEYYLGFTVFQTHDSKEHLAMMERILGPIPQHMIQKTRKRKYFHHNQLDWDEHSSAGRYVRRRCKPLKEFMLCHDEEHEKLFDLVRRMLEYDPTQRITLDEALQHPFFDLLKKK
Sequence of Phosphatidylinositol 4,5-bisphosphate 3-kinase catalytic subunit alpha isoform (Homo sapiens), P42336 [H1047L] (P42336 whole entry H1047L, the tested form may be a part, canonical isoform): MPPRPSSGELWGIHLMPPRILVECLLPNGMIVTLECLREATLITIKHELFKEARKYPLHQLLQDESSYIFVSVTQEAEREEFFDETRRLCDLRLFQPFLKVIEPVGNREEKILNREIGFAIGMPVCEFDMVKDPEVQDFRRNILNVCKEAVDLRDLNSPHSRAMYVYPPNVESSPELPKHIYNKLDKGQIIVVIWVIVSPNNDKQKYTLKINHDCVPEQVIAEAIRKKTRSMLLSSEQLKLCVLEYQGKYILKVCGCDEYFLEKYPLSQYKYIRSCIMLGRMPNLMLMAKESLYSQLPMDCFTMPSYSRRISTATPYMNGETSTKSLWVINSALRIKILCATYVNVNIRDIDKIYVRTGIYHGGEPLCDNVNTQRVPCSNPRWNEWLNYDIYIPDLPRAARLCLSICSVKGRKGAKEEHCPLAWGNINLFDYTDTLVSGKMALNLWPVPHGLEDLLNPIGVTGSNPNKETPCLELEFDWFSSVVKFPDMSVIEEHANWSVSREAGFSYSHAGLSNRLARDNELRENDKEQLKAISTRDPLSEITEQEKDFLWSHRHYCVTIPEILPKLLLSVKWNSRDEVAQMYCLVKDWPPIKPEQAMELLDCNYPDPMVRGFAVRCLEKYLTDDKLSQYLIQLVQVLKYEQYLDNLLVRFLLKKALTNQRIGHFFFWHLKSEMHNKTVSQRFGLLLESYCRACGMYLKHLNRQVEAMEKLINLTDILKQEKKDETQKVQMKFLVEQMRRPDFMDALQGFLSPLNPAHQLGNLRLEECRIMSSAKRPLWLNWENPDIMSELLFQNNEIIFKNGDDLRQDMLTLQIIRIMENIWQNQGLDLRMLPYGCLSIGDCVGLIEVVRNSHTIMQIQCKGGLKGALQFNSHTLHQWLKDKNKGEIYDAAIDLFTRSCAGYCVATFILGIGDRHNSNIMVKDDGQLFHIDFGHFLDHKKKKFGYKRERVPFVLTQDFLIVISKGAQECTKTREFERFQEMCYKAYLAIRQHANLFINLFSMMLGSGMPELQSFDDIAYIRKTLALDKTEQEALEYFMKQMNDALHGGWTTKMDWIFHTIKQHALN
Sequence of Insulin-like growth factor 1 receptor (Homo sapiens) (P08069 31-736 limits assumed): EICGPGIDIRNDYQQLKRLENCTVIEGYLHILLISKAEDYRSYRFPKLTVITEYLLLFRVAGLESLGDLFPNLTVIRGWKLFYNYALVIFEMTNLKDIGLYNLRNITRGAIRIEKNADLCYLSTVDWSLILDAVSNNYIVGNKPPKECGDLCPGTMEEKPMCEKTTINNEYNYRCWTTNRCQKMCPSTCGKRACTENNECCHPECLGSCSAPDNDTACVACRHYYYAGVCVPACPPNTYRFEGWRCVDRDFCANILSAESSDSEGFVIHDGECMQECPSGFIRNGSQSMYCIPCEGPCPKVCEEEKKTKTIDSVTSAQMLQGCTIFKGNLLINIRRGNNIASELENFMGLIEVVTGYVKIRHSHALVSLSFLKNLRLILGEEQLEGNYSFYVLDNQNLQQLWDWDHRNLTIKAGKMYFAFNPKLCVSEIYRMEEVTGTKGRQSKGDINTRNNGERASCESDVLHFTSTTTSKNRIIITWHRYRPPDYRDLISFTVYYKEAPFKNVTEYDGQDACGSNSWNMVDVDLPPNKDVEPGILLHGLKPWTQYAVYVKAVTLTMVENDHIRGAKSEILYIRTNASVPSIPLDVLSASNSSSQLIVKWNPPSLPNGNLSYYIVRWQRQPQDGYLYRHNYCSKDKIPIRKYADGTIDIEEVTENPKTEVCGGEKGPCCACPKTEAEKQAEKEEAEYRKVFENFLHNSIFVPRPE
Sequence of Insulin-like growth factor 1 receptor (Homo sapiens) (P08069 741-1367 limits assumed): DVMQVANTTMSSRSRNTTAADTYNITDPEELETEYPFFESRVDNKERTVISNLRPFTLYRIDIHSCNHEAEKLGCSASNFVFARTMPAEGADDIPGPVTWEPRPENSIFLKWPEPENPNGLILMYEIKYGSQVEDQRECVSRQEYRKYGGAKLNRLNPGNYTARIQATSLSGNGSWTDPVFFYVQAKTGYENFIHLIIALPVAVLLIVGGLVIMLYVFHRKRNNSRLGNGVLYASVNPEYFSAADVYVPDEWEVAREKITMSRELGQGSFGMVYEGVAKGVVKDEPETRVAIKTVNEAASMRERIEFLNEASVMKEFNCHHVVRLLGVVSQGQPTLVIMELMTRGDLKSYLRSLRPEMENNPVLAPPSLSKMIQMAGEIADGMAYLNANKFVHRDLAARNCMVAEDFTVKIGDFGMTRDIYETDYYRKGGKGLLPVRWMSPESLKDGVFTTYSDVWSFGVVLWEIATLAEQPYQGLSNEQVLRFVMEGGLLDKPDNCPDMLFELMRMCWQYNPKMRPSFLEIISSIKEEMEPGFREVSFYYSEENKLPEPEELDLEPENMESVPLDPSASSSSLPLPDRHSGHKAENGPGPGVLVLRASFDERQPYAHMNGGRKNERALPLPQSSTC

Structure (SMILES): COc1cc(N2CCC(N3CCN(C)CC3)CC2)ccc1Nc1ncc2c(n1)N(C)c1ccccc1C(=O)N2C
- inhibition [1]: 100%
- inhibition [2]: 38%
- inhibition [3]: 47%
- inhibition [4]: 54%
- inhibition [5]: 0.45%
- inhibition [6]: 84%
- inhibition [7]: 100%
- inhibition [8]: 97%
- inhibition [9]: 100%
- inhibition [10]: 100%
- inhibition [11]: 100%
- inhibition [12]: 98%
- inhibition [13]: 20%
- inhibition [14]: 96%
- inhibition [15]: 15%
- inhibition [16]: 100%
- inhibition [17]: 85%
- inhibition [18]: 100%
- inhibition [19]: 62%
- residual activity [20]: 16%
- residual activity [21]: 90%
- residual activity [22]: 72%
- residual activity [23]: 0.05%
- residual activity [24]: 99%
- residual activity [25]: 92%
- residual activity [26]: 96%
- residual activity [27]: 97%
- residual activity [28]: 85%

Structure (SMILES): COc1cc(C(=O)N2CCC(N3CCN(C)CC3)CC2)ccc1Nc1ncc2c(n1)N(C1CCCC1)c1ccccc1C(=O)N2C
- inhibition [29]: -0.1%
